The text below walks through data of patent publication US20170328922A1, “METHODS AND PRODUCTS FOR LABELLING LIPIDS” (UNIVERSITY OF SOUTH AUSTRALIA, priority 2014, published 2017).

One assay concerns the target albumin (Homo sapiens, UniProt P02768). In words: Rhenium probe overlay, Example 5. The settings on record: neither ... nor ... reacted with the probe. The class given is binding. Here is the method: To determine the binding properties of tricarbonyl-(4-cyanophenyltretrazolato)-phenanthroline-rhenium (I) (Rhenium probe) to various lipids, Rhenium probe-lipid overlay was performed using either lipids spotted onto PDVF membranes (Perkin Elmer, USA) or lipid MicroStrips (Echelon Biosciences Inc., Salt Lake City, Utah). The membranes contained at least 100 pmoles of each lipid in individual spots (supplementary table 1) or 10 μL (each in PBS) of 10% (v/v) glycerol, 1% (v/v) CHAPS, 1% (w/v) SDS, 1% (v/v) Tween20, Ecydsone (10 μg/100 μL), cholesterol (10 μg/100 μL), progesterone (10 μg/100 μL), PBS, or 1% (v/v) ethanol; and were incubated with 0.5 mM of Rhenium probe in 1% (w/v) BSA/PBS for 40 minutes and then washed four times for 10 minutes in PBS. Imaging was performed on an Image Quant Las 4000 (GE, Sweden) luminescent image analyser, with the Rhenium probe being detected by excitation at 460 nm using an epi-blue light source, and detected using an 605 nm ethidium bromide filter.

Assay [1] is described as follows: Rhenium molecular probe-lipid overlay (dot blot). Details: key to interaction with Cholestrol (dot blot): ✓ indicates a positive interaction; x indicates no interaction. The class given is binding. Here is the method: (§1) The experimental protocol probe-lipid overlay was as follows: 50 μM of each lipids was loaded on to PVDF membranes (Perkin Elmer, USA), which were then incubated with molecular probes. PhenCyano and PhenPyridyl were assessed against eleven lipids including; sphingomyelin (Cat # S0756, Sigma Aldrich, USA), sphingosine (Cat # S7049; Sigma Aldrich, USA), L-phosphatidylethanolamine (Cat # P7943, Sigma Aldrich, USA), monosialodanglioside (GM1; Cat # G7641, Sigma Aldrich, USA), oleoly-L-?-lysophosphatidic acid (Cat # L7260, Sigma Aldrich, USA), palmitic acid (Cat # P5917, Sigma Aldrich, USA), sphingomyelin (Cat # S0756, Sigma Aldrich, USA), sphingosine (Cat # S7049; Sigma Aldrich, USA), L-?-phosphatidylethanolamine (Cat # P7943, Sigma Aldrich, USA), monosialodanglioside (GM1; Cat # G7641, Sigma Aldrich, USA), progesterone (Cat #102722, MP Biomedical, USA), ceramide (Cat # C2137; Sigma Aldrich, USA), triacylglycerol mix C2-C10 (Cat #17810, Sigma Aldrich, USA) and cholesteryl acetate (Cat #151114; Sigma Aldrich, USA).
(§2) All other molecular probes were assessed against a panel of six lipids including; sphingomyelin (Cat # S0756, Sigma Aldrich, USA), sphingosine (Cat # S7049; Sigma Aldrich, USA), L-?-phosphatidylethanolamine (Cat # P7943, Sigma Aldrich, USA), monosialodanglioside (GM1; Cat # G7641, Sigma Aldrich, USA), sphingomyelin (Cat # S0756, Sigma Aldrich, USA), sphingosine (Cat # S7049; Sigma Aldrich, USA), L-?-phosphatidylethanolamine (Cat # P7943, Sigma Aldrich, USA), monosialodanglioside (GM1; Cat # G7641, Sigma Aldrich, USA) and triacylglycerol mix C2-C10 (Cat #17810, Sigma Aldrich, USA).
(§3) Lipids were dissolved in ethanol, methanol or isopropanol for loading depending on solubility. Following lipid loading, membranes were left to dry for 20-30 minutes, then they were washed for 10 minutes in cold 10% ethanol, before they were incubated with 10 μM solution of each Rhenium molecular probe in cold 10% ethanol for one hour. Membranes were than washed four times for 10 minutes in cold 10% ethanol prior to imaging. Imaging was performed on an Image Quant Las 4000 (GE, Sweden) luminescent image analyser, with the Rhenium molecular probe being detected by excitation at 460 nm using an epi-blue light source, and detected using an 575 nm ethidium bromide filter.

Assay [2] in a line: Rhenium molecular probe-lipid overlay (dot blot). The class given is binding. Details: key to interaction with Lysophosphatidic acid (dot blot): ✓ indicates a positive interaction; x indicates no interaction. The protocol: as §1, §3
A short description of assay [3]: Rhenium molecular probe-lipid overlay (dot blot). The format is binding. Conditions: FIG. 7. Here is the method:
as §1
Lipids were dissolved in ethanol, methanol or isopropanol for loading depending on solubility. […] Imaging was performed on an Image Quant Las 4000 (GE, Sweden) luminescent image analyser, with the Rhenium molecular probe being detected by excitation at 460 nm using an epi-blue light source, and detected using an 575 nm ethidium bromide filter.

The nature of assay [4]: Rhenium molecular probe-lipid overlay (dot blot). The format is binding. Set-up: key to interaction with Ceramide (dot blot): ✓ indicates a positive interaction; x indicates no interaction. The protocol: as §1, §3
The test system of the next assay is 3T3 L1 cells. Put plainly: Live cell staining with rhenium molecular probes. The class given is cell-based. Conditions: live samples, 10-20 μM probe. Here is the method:
Probes were dissolved in DMSO to obtain a stock solution with a concentration of 10 mM. Stock solutions were stored at room temperature in a dark place. Working solutions were prepared only at the time of use as the probe has reduced solubility in aqueous solutions. A Working solution was a dilution 1/1000 to 1/500 of the stock in DMSO to PBS or cell medium, and as such the percentage of DMSO used in actual cell experiments was less than 1%.
For tissues, the tissues were isolated in PBS (or other physiological media) and mounted on a coverslip. For cells, these were grown as per normal practice on coverslips.
The media was removed media and replaced with 10-20 μM solution of molecular probes in PBS (or appropriate physiological media/cell media) at a dilution of stock solution from 1/1000-1/500, for 15-30 minutes at physiologically appropriate temperature (37° C. for cell culture or 25° C. for insect larvae). […] If foetal calf serum is necessary for cell health, an increased incubation time may be necessary to obtain adequate staining.
The samples were washed for one minute in PBS. […]
Micrographs of 3T3 L1, 453 cells and CHOK1 cells and Drosophila fat body tissue stained with rhenium molecular probes, PhenCyan top, PhenPyridyl bottom are shown in FIG. 10. […] Left: confocal images; Right: fluorescence microscopy images.

A short description of assay [5]: Rhenium molecular probe-lipid overlay (dot blot). The settings on record: FIG. 7 / FIG. 8. The class given is binding. Here is the method:
as §1, §2, §3

Assay [6] can be described thus: Rhenium molecular probe-lipid overlay (dot blot). The class given is binding. Set-up: key to interaction with PE (dot blot): ✓ indicates a positive interaction; x indicates no interaction. Here is the method:
as §1, §2, §3

Where [7] appears, read: 10 μM probe, 50 μM lipid on PVDF membrane.

albumin, sequence (P02768 25-609, species assumed): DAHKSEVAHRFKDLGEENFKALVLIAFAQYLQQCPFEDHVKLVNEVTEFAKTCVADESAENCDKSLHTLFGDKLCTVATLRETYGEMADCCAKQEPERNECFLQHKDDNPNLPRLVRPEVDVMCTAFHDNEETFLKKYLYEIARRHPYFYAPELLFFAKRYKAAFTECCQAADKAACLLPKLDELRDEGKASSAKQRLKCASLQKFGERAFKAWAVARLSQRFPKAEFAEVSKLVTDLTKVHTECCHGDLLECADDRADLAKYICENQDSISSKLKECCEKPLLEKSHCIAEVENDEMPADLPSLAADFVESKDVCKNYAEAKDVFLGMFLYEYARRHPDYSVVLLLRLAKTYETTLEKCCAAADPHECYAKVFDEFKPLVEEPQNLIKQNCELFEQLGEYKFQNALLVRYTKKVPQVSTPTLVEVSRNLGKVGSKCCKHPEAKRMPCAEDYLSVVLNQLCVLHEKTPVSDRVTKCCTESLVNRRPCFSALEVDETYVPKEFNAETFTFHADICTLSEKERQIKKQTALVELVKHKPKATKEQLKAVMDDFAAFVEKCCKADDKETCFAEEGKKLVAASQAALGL

For the molecule `N#Cc1ccc(-c2nn[n]([Re](=[C]=O)(=[C]=O)=[C]=O)n2)cc1.c1cnc2c(c1)ccc1cccnc12` [PhenCyano, Triscarbonyl phenanthroline (4-cyanophenyltetrazolato)Rhenium(I)], the reactivity with albumin result at albumin is “Neither”. Besides, in assay [1] (setting [7]), the “interaction with Cholestrol (dot blot)” value is given as “✓”. In addition, the “affinity towards cholesterol, in words” value in assay [1] (FIG. 7 / FIG. 8) was “some affinity”. For the same molecule, in assay [2] (setting [7]), the “interaction with Lysophosphatidic acid (dot blot)” value is on record as “✓”. The “affinity towards lysophosphatidic acid, in words” value in assay [2] (FIG. 7) is “some affinity”. Moreover, the “interaction with fatty acid (palmitic acid), in words” value in assay [3] is on record as “no interaction detected”. Moreover, in assay [4] (setting [7]), the “interaction with Ceramide (dot blot)” value is given as “x”. Also, the “interaction with ceramide, in words” value in assay [4] (FIG. 7) was “no interaction detected”. In the assay with 3T3 L1 cells, the “staining pattern in 3T3 L1 cells” value was “distribution consistent with lipid droplet staining”. The “interaction with triglycerides, in words” value in assay [5] is “no interaction detected”. The “interaction with PE (dot blot)” value in assay [6] (setting [7]) is recorded as “✓”. Also, the “affinity towards phosphatidylethanolamine (PE), in words” value in assay [6] (FIG. 7 / FIG. 8) was “some affinity”.
